Results on one compound are retold here after article PMC10677270, “2554. What’s Weight Got to Do with It? Prospective Pharmacokinetic/Pharmacodynamic Evaluation of Fixed-Dose Daptomycin” (Open Forum Infectious Diseases, 2023).

A short description of the series: Steady-state pharmacokinetic/pharmacodynamic evaluation of fixed-dose (750 mg) daptomycin in patients with Staphylococcus aureus infections.

Description: This study evaluated systemic exposure of a fixed dose (750 mg) of DAP in patients with Staphylococcus aureus infections. Methods Adult non-ICU patients with CrCl ≥ 30 mL/min admitted to our academic medical center warranting DAP for a S. aureus infection were eligible for enrollment. DAP 750 mg was infused over 30 minutes every 24 hours. At steady state, concentrations were obtained pre-dose (0.5 hours) and 1, 12, and 24 hours after the start of infusion. Concentrations were measured using a validated LC-MS assay. Pharmacokinetic (PK) analysis was performed using first-order equations and stratified by weight: low (< 65 kg), normal (65-85 kg), and high ( > 85 kg). Therapeutic AUC24 (≥ 666 mg*hr/L) and elevated trough (Cmin > 24.3 mg/L) were the efficacy and safety targets, respectively.

Under “all patients n=22, DAP 750 mg infused over 30 min every 24 h, LC-MS, first-order equations, median, IQR [0.046, 0.098]”, `CCCCCCCCCC(=O)N[C@@H](Cc1c[nH]c2ccccc12)C(=O)N[C@H](CC(N)=O)C(=O)N[C@@H](CC(=O)O)C(=O)N[C@@H]1C(=O)NCC(=O)N[C@@H](CCCN)C(=O)N[C@@H](CC(=O)O)C(=O)N[C@H](C)C(=O)N[C@@H](CC(=O)O)C(=O)NCC(=O)N[C@H](CO)C(=O)N[C@@H]([C@H](C)CC(=O)O)C(=O)N[C@@H](CC(=O)c2ccccc2N)C(=O)O[C@@H]1C` [DAP, daptomycin] showed a Ke of 0.078 h⁻¹. Besides, the Cmin (all patients n=22, DAP 750 mg infused over 30 min every 24 h, LC-MS, median, IQR [7.3, 29.9]) was found to be 10500 ng/mL. Besides, the “Therapeutic AUC24 (>= 666 mg*hr/L) achieved, share of patients” value (from here on “Therapeutic AUC24”) (all patients, 14/22, DAP 750 mg every 24 h, efficacy target) amounted to 64%; the “Therapeutic AUC24” value (females n=12, DAP 750 mg every 24 h) is given as 83%; the “Therapeutic AUC24” value (males n=10, DAP 750 mg every 24 h) came out at 40%.
